From US9732060B2, “Aminotriazine derivative and pharmaceutical composition comprising the same” (Shionogi & Co., Ltd., priority 2013, dated 2017)

Key:
[1] = Solubility test (1% DMSO, artificial intestinal juice pH 6.8); type: physicochemical; conditions: artificial intestinal juice pH 6.8 with 1% DMSO, 25 °C, fassgf or other biorelevant, kinetic from dmso stock, artificial intestinal juice pH 6.8, 25 degrees Celsius, read-out: Solubulity
Method: The solubility of a compound was determined under a condition in which 1% DMSO was added. 10 mmol/L compound solution was prepared using DMSO, and then 2 μL of the compound solution was added to 198 μL of artificial intestinal juice in pH 6.8 (to 250 mL of 0.2 mol/L potassium dihydrogen phosphate reagent solution was added 118 mL of 0.2 mol/L NaOH reagent solution and water to provide a final volume of 1000 mL). After standing at 25 degrees Celsius for 18 hours, the mixed solution was filtrated with suction. The filtrate was diluted twice with methanol/water (1/1), and then a concentration in the filtration was measured with HPLC or LC/MS/MS by the absolute calibration method.

[2] = Metabolism stability test, pooled human hepatic microsomes; type: in vitro ADME; conditions: remaining rate, human liver microsomes, 30 minutes, compound concentration 0.5 μmol/L
Method: Using commercially available pooled human hepatic microsomes, a test compound is reacted for a constant time, a remaining rate is calculated by comparing a reacted sample and an unreacted sample, thereby, a degree of metabolism in liver is assessed.
A reaction was performed (oxidative reaction) at 37° C. for 0 minute or 30 minutes in the presence of 1 mmol/L NADPH in 0.2 mL of a buffer (50 mmol/L tris-HCl pH 7.4, 150 mmol/L potassium chloride, 10 mmol/L magnesium chloride) containing 0.5 mg protein/mL of human liver microsomes. After the reaction, 50 μL of the reaction solution was added to 100 μL of a methanol/acetonitrile=1/1 (v/v) mixed and centrifuged at 3000 rpm for 15 minutes. The test compound in the supernatant was quantified by LC/MS/MS, and a remaining amount of the test compound after the reaction was calculated, letting a compound amount at 0 minute reaction time to be 100%.
The remaining rate at the compound concentration 0.5 μmol/L are shown below.

[3] = molecular target: human ether-a-go-go related gene (hERG) channel (Homo sapiens (Human), UniProt Q12809); test: hERG test (whole cell patch clamp, IKr); type: cell-based; conditions: CHO cells expressing hERG channel, IKr tail peak current
Sequence of human ether-a-go-go related gene (hERG) channel (Q12809 whole entry): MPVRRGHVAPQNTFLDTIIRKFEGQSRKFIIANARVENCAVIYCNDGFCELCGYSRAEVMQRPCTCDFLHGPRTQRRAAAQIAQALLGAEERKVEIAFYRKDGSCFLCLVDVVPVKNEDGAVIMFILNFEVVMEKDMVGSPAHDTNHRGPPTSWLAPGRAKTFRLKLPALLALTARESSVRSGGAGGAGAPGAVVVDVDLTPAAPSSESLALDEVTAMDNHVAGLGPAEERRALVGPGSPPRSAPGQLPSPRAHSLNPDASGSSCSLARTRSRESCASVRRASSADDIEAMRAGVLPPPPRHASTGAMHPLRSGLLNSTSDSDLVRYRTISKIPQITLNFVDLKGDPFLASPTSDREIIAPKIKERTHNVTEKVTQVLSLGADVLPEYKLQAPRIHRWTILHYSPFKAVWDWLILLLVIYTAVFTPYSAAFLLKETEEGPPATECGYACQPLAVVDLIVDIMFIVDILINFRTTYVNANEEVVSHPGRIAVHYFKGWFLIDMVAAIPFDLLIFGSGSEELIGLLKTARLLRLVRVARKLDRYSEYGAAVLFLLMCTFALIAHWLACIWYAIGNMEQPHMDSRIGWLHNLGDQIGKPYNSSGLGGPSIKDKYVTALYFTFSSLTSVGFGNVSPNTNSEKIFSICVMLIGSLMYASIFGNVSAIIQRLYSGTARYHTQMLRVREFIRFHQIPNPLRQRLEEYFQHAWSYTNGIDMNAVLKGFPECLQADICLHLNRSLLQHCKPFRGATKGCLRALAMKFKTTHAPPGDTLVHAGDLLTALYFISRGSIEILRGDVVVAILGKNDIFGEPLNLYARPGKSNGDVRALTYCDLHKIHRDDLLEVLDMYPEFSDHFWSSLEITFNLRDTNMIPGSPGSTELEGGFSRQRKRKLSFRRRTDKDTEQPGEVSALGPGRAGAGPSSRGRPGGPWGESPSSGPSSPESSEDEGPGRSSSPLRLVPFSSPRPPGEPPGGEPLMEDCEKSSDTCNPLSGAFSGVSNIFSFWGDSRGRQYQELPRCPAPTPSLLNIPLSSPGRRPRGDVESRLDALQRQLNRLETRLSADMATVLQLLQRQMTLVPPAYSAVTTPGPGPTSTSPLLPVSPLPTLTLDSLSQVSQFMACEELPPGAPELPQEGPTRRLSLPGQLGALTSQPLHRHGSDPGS
From the text: For the purpose of assessing risk of an electrocardiogram QT interval prolongation of the compound of the present invention, effects of the compound of the present invention on delayed rectifier K+ current (IKr), which plays an important role in the ventricular repolarization process, was studied using CHO cells expressing human ether-a-go-go related gene (hERG) channel.
After a cell was retained at a membrane potential of −80 mV by whole cell patch clamp method using an automated patch clamp system (QPatch: Sophion Bioscience A/S) and gave a leak potential of −50 mV, IKr induced by depolarization pulse stimulation at +20 mV for 2 seconds and, further, repolarization pulse stimulation at −50 mV for 2 seconds, was recorded. […] From the recording IKr, an absolute value of the tail peak current was measured based on the current value at the resting membrane potential using analysis software (Falster Patch; Sophion Bioscience A/S). Further, the % inhibition relative to the tail peak current before application of the compound of the present invention was calculated, and compared with the vehicle-applied group (0.1% dimethyl sulfoxide solution) to assess influence of the compound of the present invention on IKr.

SMILES	solubility at 18 h [1]	Metabolism Stability [2]	hERG Inhibition [3]
C[C@@H](C(=O)O)[C@H](C)n1c(=O)[nH]/c(=N\c2ccc(Oc3ccc(F)cn3)c(F)c2)n(Cc2ccc(Cl)cc2)c1=O [Compound I-002]	> 50 µM	99%	7.3%
CC(C)(Cn1c(=O)[nH]/c(=N\c2ccc(Oc3ccc(Cl)cn3)cc2)n(Cc2ccc(Cl)cc2)c1=O)C(=O)O [Compound I-006]			5.3%
